The text below walks through data of patent publication US12264134B2 (Merck Sharp & Dohme LLC, priority 2018, dated 2025).

One may read the IC50 as the concentration at which inhibition is half-maximal.

Where only a bound is given, the exact number is not on record here.

For this assay, the target named is IDO1 (Homo sapiens, UniProt P14902). As to the kind of experiment: IDO1 Cellular Assay in HeLa Cells Stimulated with IFNγ. The assay is classed as cell-based. As to conditions: read-out: HeLa Cell Potency, IC50. On the procedure: IDO1 Cellular Assay in HeLa Cells Stimulated with IFNγ
Sequence of IDO1 (P14902 whole entry): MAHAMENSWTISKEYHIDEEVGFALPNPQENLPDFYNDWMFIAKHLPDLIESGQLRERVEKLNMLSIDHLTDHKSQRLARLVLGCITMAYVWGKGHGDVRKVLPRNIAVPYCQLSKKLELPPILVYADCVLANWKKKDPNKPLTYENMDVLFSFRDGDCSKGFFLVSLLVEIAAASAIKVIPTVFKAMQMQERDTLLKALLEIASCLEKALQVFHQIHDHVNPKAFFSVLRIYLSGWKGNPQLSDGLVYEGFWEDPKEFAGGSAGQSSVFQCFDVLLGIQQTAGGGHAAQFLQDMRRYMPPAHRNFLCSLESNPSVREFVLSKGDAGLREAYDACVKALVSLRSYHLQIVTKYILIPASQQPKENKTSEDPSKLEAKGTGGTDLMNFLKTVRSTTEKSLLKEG
HeLa cells were cultured in complete HeLa culture medium (90% EMEM, 10% heat-inactivated fetal bovine serum) and expanded to about 1×10^9 cells. The cells were then collected and frozen down at 1×10^7 cells/vial in 1 mL frozen medium (90% complete HeLa culture medium, 10% DMSO).
Compounds to be tested were serially diluted in ten 3-fold steps in DMSO starting from 10 mM DMSO stocks in Echo low volume plate(s). Compound dilutions or DMSO alone were then dispensed from the dilution plate(s) into Greiner black 384-well assay plate(s) (catalog #781086, 50 nL/well) using an Echo 550 acoustic liquid handler (Labcyte).
Frozen HeLa cells were thawed and transferred into HeLa assay medium (99% complete HeLa culture medium, 1% Pen/Strep) with 20 mL medium/vial of cells. The cells were spun down at 250 g in a table top centrifuge for 5 min and suspended in same volume of HeLa assay medium. The cells were then counted and adjusted to a density of 2×10^5 cells/mL in HeLa assay medium. Sterile L-tryptophan were added to the cells with final concentration of 300 uM L-tryptophan. A small aliquot (2 mL/plate) of HeLa cells were set aside and were not treated with IFNγ, to serve as the Max-E control.
HeLa cells with and without IFNγ were dispensed to the respective wells of 384-well assay plates containing the compounds. The plates were incubated for about 48 hours at a 37° C., 5% CO2 incubator. Afterwards, 12 μL of 0.5 M methyl isonipecotate in dimethyl sulfoxide were added into each well and the plates were sealed and incubated at 37° C. without CO2 overnight. The plates were centrifuged for 1 min at 200×g. The resulting fluorescence was measured in a Spectramax plate reader (Molecular Devices) with a 400 nm excitation filter and a 510 nm emission filter.
The fluorescence intensity of each well was corrected for the background observed in wells with non-IFNγ-treated cells and was expressed as a fraction of the intensity observed in wells of IFNγ-treated cells and DMSO only. Potencies were calculated by linear least squares fit to the four parameter logistic IC50 equation.
In the case of “1-(2-(difluoromethyl)-4-(2,3-dimethylphenyl)piperazin-1-yl)-2-((3bR,4aR)-3-(4-hydroxypiperidine-1-carbonyl)-3b,4,4a,5-tetrahydro-1H-cyclopropa[3,4]cyclopenta[1,2-c]pyrazol-1-yl)ethanone [Example 387]”, the IC50 turned out to be 205 nM.

As to `Cc1cccc(N2CCN(C(=O)Cn3nc(C(=O)N4CC[C@H](O)[C@H](F)C4)c4c3CCC4C(F)F)CC2)c1C` (mixture of isomers) [Example 19, 2-[rac-4-(difluoromethyl)-3-[(3R,4S)-3-fluoro-4-hydroxy-piperidine-1-carbonyl]-5,6-dihydro-4H-cyclopenta[c]pyrazol-1-yl]-1-[4-(2,3-dimethylphenyl)piperazin-1-yl]ethanone], the IC50 is 113 nM.

Turning to `Cc1cccc(N2CCN(C(=O)Cn3nc(C(=O)N4CC[C@@H](O)[C@@H](F)C4)c4c3CC(F)C4)CC2)c1C` (mixture of isomers) [Example 417, 1-(4-(2,3-dimethylphenyl)piperazin-1-yl)-2-(5-fluoro-3-((3S,4R)-3-fluoro-4-hydroxypiperidine-1-carbonyl)-5,6-dihydrocyclopenta[c]pyrazol-1(4H)-yl)ethan-1-one], the IC50 was found to be 27 nM.

As to `Cc1cccc(N2CCN(C(=O)Cn3nc(C(=O)N4CC[C@@H](O)[C@@H](F)C4)c4c3C(O)CC4)CC2)c1C` (mixture of isomers) [Example 421, 1-(4-(2,3-dimethylphenyl)piperazin-1-yl)-2-(3-((3S,4R)-3-fluoro-4-hydroxypiperidine-1-carbonyl)-6-hydroxy-5,6-dihydrocyclopenta[c]pyrazol-1(4H)-yl)ethanone], the IC50 was 692 nM.

As to `O=C(Cn1nc(C(=O)N2CC[C@H](O)[C@H](F)C2)c2c1CCC2)N1CCN(C2CCc3ccccc32)CC1` (mixture of isomers) [Example 438, 1-(4-(2,3-dihydro-1H-inden-1-yl)piperazin-1-yl)-2-(3-((3R,4S)-3-fluoro-4-hydroxypiperidine-1-carbonyl)-5,6-dihydrocyclopenta[c]pyrazol-1(4H)-yl)ethanone], the IC50 was determined as 1590 nM.

For the molecule `Cc1cccc(N2CCN(C(=O)Cn3nc(C(=O)N4CCC(O)CC4)c4c3CCC4C(F)F)CC2)c1C` (racemic) [Example 18, 2-[rac-4-(difluoromethyl)-3-(4-hydroxypiperidine-1-carbonyl)-5,6-dihydro-4H-cyclopenta[c]pyrazol-1-yl]-1-[4-(2,3-dimethylphenyl)piperazin-1-yl]ethanone], the IC50 was 92.4 nM.

For the molecule `Cc1cccc(N2CCN(C(=O)Cn3nc(C(=O)N4CC[C@H](F)[C@@H](O)C4)c4c3CCC4)CC2)c1C` (racemic) [Example 208, 1-[4-(2,3-dimethylphenyl)piperazin-1-yl]-2-[3-[rac-(3S,4S)-4-fluoro-3-hydroxy-piperidine-1-carbony]-5,6-dihydro-4H-cyclopenta[c]pyrazol-1-yl]ethanone], the IC50 worked out at 30.9 nM.

Take `Cc1cccc(N2CCN(C(=O)Cn3nc(C(=O)N4CC[C@H](O)[C@H](F)C4)c4c3C[C@H]3C[C@@H]43)[C@H]3CCC[C@@H]32)c1C` (racemic) [Example 327, 1-[rac-(4aS,7aS or 4aR,7aR)-1-(2,3-dimethylphenyl)-3,4a,5,6,7,7a-hexahydro-2H-cyclopenta[b]pyrazin-4-yl]-2-[(2R,4R)-9-[(3R,4S)-3-fluoro-4-hydroxy-piperidine-1-carbonyl]-7,8-diazatricyclo[4.3.0.02,4]nona-1(6),8-dien-7-yl]ethanone]: the IC50 came to 17.1 nM.

For `Cc1cccc(N2CCN(C(=O)Cn3nc(C(=O)N4CC[C@H](O)[C@@H](F)C4)c4c3CC(O)C4)CC2)c1C` (mixture of isomers) [Example 414, 1-(4-(2,3-dimethylphenyl)piperazin-1-yl)-2-(3-((3 S,4S)-3-fluoro-4-hydroxypiperidine-1-carbonyl)-5-hydroxy-5,6-dihydrocyclopenta[c]pyrazol-1 (4H)-yl)ethanone], the IC50 amounted to 381 nM.

As for `Cc1cccc(N2CCN(C(=O)Cn3nc(C(=O)N4CC[C@H](O)[C@H](F)C4)c4c3CC(C(F)F)C4)CC2)c1C` (single isomer, unassigned) [Example 12], the IC50 was 13.2 nM.

On to `Cc1cccc(N2CCN(C(=O)Cn3nc(C(=O)N4CCC(OCCO)CC4)c4c3CCC4C(F)F)CC2)c1C` (single isomer, unassigned) [Example 13, 2-[4-(difluoromethyl)-3-[4-(2-hydroxyethoxy)piperidine-1-carbonyl]-5,6-dihydro-4H-cyclopenta[c]pyrazol-1-yl]-1-[4-(2,3-dimethylphenyl)piperazin-1-yl]ethanone], for which the half-inhibitory concentration (IC50) stood at 31 nM.

For `Cc1cccc(N2CCN(C(=O)Cn3nc(C(=O)N4CC[C@H](O)[C@H](F)C4)c4c3CCC4C(F)F)CC2)c1C` (single isomer, unassigned) [Example 14], the IC50 is 43.8 nM.

In the case of `Cc1cccc(N2CCN(C(=O)Cn3nc(C(=O)N4CCC(O)CC4)c4c3CCC4C(F)F)CC2)c1C` (single isomer, unassigned) [Example 15, 2-[4-(difluoromethyl)-3-(4-hydroxypiperidine-1-carbonyl)-5,6-dihydro-4H-cyclopenta[c]pyrazol-1-yl]-1-[4-(2,3-dimethylphenyl)piperazin-1-yl]ethanone], the IC50 turned out to be 19.9 nM.

On to `Cc1cccc(N2CCN(C(=O)Cn3nc(C(=O)N4CC[C@H](O)[C@H](F)C4)c4c3C(O)CCC4)CC2)c1C` (single isomer, unassigned) [Example 25], for which the IC50 came out at 496 nM.

Consider `Cc1cccc(N2CCN(C(=O)Cn3nc(C(=O)N4CC[C@@H](N)C(F)(F)C4)c4c3CCC4)CC2)c1C` (single isomer, unassigned) [Example 206, [(4R or 4S)-1-[1-[2-[4-(2,3-dimethylphenyl)piperazin-1-yl]-2-oxo-ethyl]-5,6-dihydro-4H-cyclopenta[c]pyrazole-3-carbonyl]-3,3-difluoro-4-piperidyl]ammonium;2,2,2-trifluoroacetate], for which the IC50 was determined as 27.9 nM.

For the molecule `Cc1cccc(N2CCN(C(=O)Cn3nc(C(=O)N4CC[C@H](N)C(F)(F)C4)c4c3CCC4)CC2)c1C` (single isomer, unassigned) [Example 209, [(4S or 4R)-1-[1-[2-[4-(2,3-dimethylphenyl)piperazin-1-yl]-2-oxo-ethyl]-5,6-dihydro-4H-cyclopenta[c]pyrazole-3-carbonyl]-3,3-difluoro-4-piperidyl]ammonium;2,2,2-trifluoroactate], the IC50 was determined as 36.8 nM.

With `Cc1cccc(N2CCN(C(=O)Cn3nc(C(=O)N4CCC(F)(F)[C@H](O)C4)c4c3CCC4)CC2)c1C` (single isomer, unassigned) [Example 210, 2-[3-[(3R or 3S)-4,4-difluoro-3-hydroxy-piperidine-1-carbonyl]-5,6-dihydro-4H-cyclopenta[c]pyrazol-1-yl]-1-[4-(2,3-dimethylphenyl)piperazin-1-yl]ethanone], the IC50 stood at 63.5 nM.

Turning to `Cc1cccc(N2CCN(C(=O)Cn3nc(C(=O)N4CCC(F)(F)[C@@H](O)C4)c4c3CCC4)CC2)c1C` (single isomer, unassigned) [Example 213, 2-[3-[(3S or 3R)-4,4-difluoro-3-hydroxy-piperidine-1-carbonyl]-5,6-dihydro-4H-cyclopenta[c]pyrazol-1-yl]-1-[4-(2,3-dimethylphenyl)piperazin-1-yl]ethanone], the IC50 is 90.9 nM.

With `Cc1cccc(N2CCN(C(=O)Cn3nc(C(=O)N4CCC(O)CC4)c4c3C[C@H]3C[C@@H]43)C(C(F)F)C2)c1C` (single isomer, unassigned) [Example 386], the IC50 came to 14 nM.

With `Cc1cccc(N2CCN(C(=O)Cn3nc(C(=O)N4CC[C@H](O)[C@@H](F)C4)c4c3CC(O)C4)CC2)c1C` (single isomer, unassigned) [Example 415], the IC50 came to 341 nM.

In the case of `Cc1cccc(N2CCN(C(=O)Cn3nc(C(=O)N4CC[C@H](O)[C@@H](F)C4)c4c3CC(O)C4)CC2)c1C` (single isomer, unassigned) [Example 416], the IC50 was found to be 75.7 nM.

For the molecule `Cc1cccc(N2CCN(C(=O)Cn3nc(C(=O)N4CC[C@@H](O)[C@@H](F)C4)c4c3C(O)CC4)CC2)c1C` (single isomer, unassigned) [Example 422], the IC50 was found to be 2950 nM.

For the molecule `Cc1cccc(N2CCN(C(=O)Cn3nc(C(=O)N4CC[C@@H](O)[C@@H](F)C4)c4c3C(O)CC4)CC2)c1C` (single isomer, unassigned) [Example 423], the IC50 is 195 nM.

Take `O=C(Cn1nc(C(=O)N2CC[C@H](O)[C@H](F)C2)c2c1CCC2)N1CCN(C2CCCc3ccccc32)CC1` (single isomer, unassigned) [Example 426]: the half-inhibitory concentration (IC50) amounted to 302 nM.

As to `O=C(Cn1nc(C(=O)N2CC[C@H](O)[C@H](F)C2)c2c1CCC2)N1CCN(C2CCCc3ccccc32)CC1` (single isomer, unassigned) [Example 427], the IC50 is > 10000 nM.

Take `O=C(Cn1nc(C(=O)N2CCC(O)CC2)c2c1CCC2)N1CCN(C2CCCc3ccccc32)CC1` (single isomer, unassigned) [Example 429]: the IC50 is 183 nM.
